{"source": "patent US20060135480A1", "about": "“Derivatives of succinic and glutaric acids and analogs thereof useful as inhibitors of phex” (Enobia Pharma, priority 2002, published 2006)", "key": {"[1]": {"tested_on": "primary rat calvaria osteoblasts", "assay": "Mineralization by 45Ca incorporation in cultured rat calvaria osteoblasts", "format": "cell-based", "conditions": "fetal rat calvaria cells", "procedure": "In general, to show stimulation of mineralization in cultured cells by PHEX inhibitors, cells of osteoblast lineage are incubated in conditions that favors the mineralization process in the absence and the presence of the PHEX inhibiting compound. This cellular model is used to study osteoblasts proliferation and differentiation, and to follow the mineralization process.\nMineralization can be monitored by standard techniques such as von Kossa staining or ^45Ca incorporation in the extracellular matrix.\nFor example, cells were enzymatically isolated from the calvaria of 21-day old Wistar rat fetuses by sequential digestion with collagenase as described previously (Bellows et al., 1986). Cells obtained from the last four of the five digestion steps were plated in T-75 flasks in α-MEM containing 15% FBS (Cansera) and antibiotics comprising 100 μg/ml penicillin G (Sigma-Aldrich), 50 μg/ml gentamycin (Life Technologies), and 0.3 μg/ml fungizone (Life Technologies). […]\nAt day 18, 21 and 25 of rat calvaria osteoblasts culture, mineralization was determined by ^45Ca incorporation assay as described previously (Ecarot et Desbarats, 1999). […] Cell layers were solubilized in 12.5% trichloroacetic acid and aliquots counted for radioactivity."}, "rat mandibular defect": {"tested_on": "rat mandibular defect", "assay": "Bone lesion repair in rat mandibular defect model (hydroxyapatite particles soaked in inhibitor)", "format": "in vivo", "conditions": "for bone formation (scanning electron microscopy, % of total defect area): 14 days of healing", "procedure": "Osteogenic properties of PHEX inhibitors can be shown in a model of rat mandibular defect. For example, a 2 mm size bone defect was created in the rat mandible as described previously (Vu et al., 1999). Rats were anesthetized and the vestibular surface of the right mandibular ramus was exposed as follow: an incision was made through the skin along an imaginary line forming a 90° angle with the lower lip to access the muscle layer. A scalpel blade was used to make an incision parallel to the fibers of the deep portion of masseter muscle, about 2 mm posterior to the facial artery (largest branch of the external carotid), in the portion where it gives rise to the labial mandibular artery. The periosteum was elevated and the underlying bony surface exposed. A 2 mm×2 mm bony window was drilled between the second and third molar using a slow-speed dental drill with a carbide round burr size 1.4 mm (Brasseler) and a drill size 2 mm (Straumann Canada Ltd). Saline irrigation was used during the drilling. Porous hydroxyapatite particles (Fin-Ceramica Faenza s.r.l.) with pore size ranged from 450 to 600 μm were accommodated in the bony hole and pushed into it. The particles had been incubated previously in solutions of varying concentrations of PHEX inhibitor or vehicle for 16 to 24 hours at 4° C. Once the bony window was filled the lesion was covered with a membrane of hydroxyapatite (Fin-Ceramica Faenza s.r.l.) which was fixed to the surrounding bone surface with topical tissue adhesive. The muscle fibers were carefully repositioned on the mandible and sutured with absorbable surgical sutures (Chromic Gut, Ethicon Inc.). The skin was sutured for total coverage with silk sutures (Sherwood Davis & Geck, Wayne). After 7 days of treatment the bone lesion was exposed and varying concentrations of PHEX inhibitor or vehicle was reapplied to hydroxyapatite particles. Treatment was continued for another 7 days.\nAfter the 14 day healing period, bone formation at the defect was evaluated by scanning electron microscopy and microcomputed tomography. Animals were sacrificed by intravascular perfusion through the left ventricle with 4% paraformaldehyde and 0.1% glutaraldehyde solution. Treated hemimandibles were taken, immersed in the fixative overnight at 4° C. then washed and kept in 0.1 M cacodylate buffer pH 8.0 until analysis. Specimens for quantification by scanning electron microscopy were dehydrated in a graded alcohol series and embedded in LR White resin (Marivac) for further sectioning along their longitudinal axis. […] Amount of bone tissue present in the sections was quantified by manual tracing using the MOP-3 system (Carl Zeiss) and was expressed as a percentage of the total defect area."}}}
{"smiles": "O=C(O)CC(CC(=O)NO)C(=O)NCCc1ccc(-c2ccccc2)cc1", "note": "(stereo not drawn) [Example 126, 3-(2-Biphenyl-4-yl-ethylcarbamoyl)4-hydroxycarbamoyl-butyric acid]", "values": [{"measurement": "45Ca incorporation by the cells (mineralization)", "setting": "[1]; 1×10^−5 M (high dose)", "value": "reduced significantly"}, {"measurement": "45Ca incorporation by the cells (mineralization)", "setting": "[1]; lower concentrations, low dose (10^−6 M)", "value": "significantly stimulated"}, {"measurement": "bone formation (scanning electron microscopy, % of total defect area)", "setting": "rat mandibular defect; 1×10^−5 M on hydroxyapatite particles, compared to saline", "value": "reduced significantly"}, {"measurement": "bone formation (microcomputed tomography 3D reconstruction)", "setting": "rat mandibular defect; high inhibitor dose, one representative specimen per group", "value": "reduced bone formation"}, {"measurement": "bone around particles (microcomputed tomography 3D reconstruction)", "setting": "rat mandibular defect; low dose of inhibitor vs saline, one representative specimen per group", "value": "more bone"}, {"measurement": "bone formation (scanning electron microscopy, % of total defect area)", "setting": "rat mandibular defect; lower concentrations on hydroxyapatite particles", "value": "significantly stimulated"}]}
